For 1 compound, Bmax and Kd results are on record in ChEMBL document CHEMBL1133369, “Synthesis and preliminary biological evaluation of [3H]-MRE 3008-F20: the first high affinity radioligand antagonist for the human A3 adenosine receptors” (Bioorg Med Chem Lett, 2000).

The target in test [1] is T1, Adenosine receptor A3 (Homo sapiens) (UniProt P0DMS8).
T1 sequence (whole entry): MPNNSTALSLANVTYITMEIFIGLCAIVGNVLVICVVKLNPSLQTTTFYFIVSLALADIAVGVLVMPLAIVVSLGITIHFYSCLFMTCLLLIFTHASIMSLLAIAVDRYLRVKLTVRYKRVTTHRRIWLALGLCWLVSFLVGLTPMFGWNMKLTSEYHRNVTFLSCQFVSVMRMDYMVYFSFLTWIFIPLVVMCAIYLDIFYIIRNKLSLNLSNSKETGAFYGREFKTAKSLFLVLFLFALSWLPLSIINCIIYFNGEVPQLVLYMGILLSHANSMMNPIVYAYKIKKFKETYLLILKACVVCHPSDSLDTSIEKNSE
Kind of test: Binding affinity against human AAdenosine A3 receptor in CHO cells. Format: cell-based.

In test [2] the target is T2, Adenosine receptor A3 (Homo sapiens, UniProt P0DMS8).
T2 sequence (P0DMS8 whole entry): T1 sequence (whole entry)
Kind of test: Binding affinity against human Adenosine A3 receptor in CHO cells. In kind it is cell-based.

`C=CCn1cc2c(nc(NC(=O)Nc3ccc(OC)cc3)n3nc(-c4ccco4)nc23)n1` gave a Bmax in test [1] of 297 fmol/mg. The compound also showed a Kd in test [2] of 820 pM.
